Literature values, collected in patent publication US11123091B2, “Device and methods for treating paranasal sinus conditions” (Intersect ENT, Inc., priority 2005, dated 2021).

Test system: cultured human airway epithelial cells
Conditions: for drug concentration at which dose response curves begin: beginning as low as; for EC50: read-out: EC50 levels of transcriptional response

EC50	SMILES	drug concentration at which dose response curves begin
0.1 nM	CCC(=O)O[C@]1(C(=O)SCF)[C@H](C)C[C@H]2[C@@H]3C[C@H](F)C4=CC(=O)C=C[C@]4(C)[C@@]3(F)[C@@H](O)C[C@@]21C [fluticasone propionate]	10^−12 M
0.1 nM	C[C@@H]1C[C@H]2[C@@H]3CCC4=CC(=O)C=C[C@]4(C)[C@@]3(Cl)[C@@H](O)C[C@]2(C)[C@@]1(OC(=O)c1ccco1)C(=O)CCl [mometasone furoate]	10^−12 M
